From patent US12569482B2, “Methods and compositions for treating idiopathic pulmonary fibrosis” (priority 2018, dated 2026)
Where two headings read alike, the source gives them in different places.

Assays:
[1] = Plasma drug levels, Example 2; format: in vivo, C57BL/6 mice; settings: C57BL/6, mouse
Description: On Day 5, the mice with bleomycin treatment were divided into four groups at random (referred to as Group 2-5, n=10), and orally administered with vehicle (DMSO: PEG400=1:9, V/V), itraconazole (Kangmanlin Co. Ltd. prepared in DMSO/PEG400 with a final concentration of 1.5 mg/mL), nintedanib (Kangmanlin Co. Ltd., prepared in DMSO/PEG400 with a final concentration of 6.0 mg/mL), and itraconazole+nintedanib (prepared in DMSO/PEG400 with final concentrations of 1.5 mg/mL and 6.0 mg/mL) at daily doses of 10 mL/kg, 15 mg/kg, 60 mg/kg and 15+60 mg/kg, respectively. The mice in the Control group was administered with vehicle (DMSO/PEG400) at a daily dose of 10 mL/kg. Mice body weights were measured and recorded on Day 1, 5, 12, 19 and 21.
Two hours post drug administration on Day 21, all animals were anaesthetized with pentobarbital (i.p., 60 mg/kg). Blood sample, bronchoalveolar lavage fluid (BALF) and lung lobes were collected from each mouse and then processed following the protocols in Example 1.

[2] = test system: bleomycin-induced lung fibrosis; test: Bleomycin induced IPF mouse model, Example 2 (oral itraconazole, nintedanib or combination); format: in vivo, C57BL/6 mice
Description: The animals in the Control group were administered intratracheally with PBS at a dose of 2 mL/kg while the others were administered intratracheally with bleomycin (Cat #HY-17565, MCE) at a dose of 0.66 mg/kg. On Day 5, the mice with bleomycin treatment were divided into four groups at random (referred to as Group 2-5, n=10), and orally administered with vehicle (DMSO: PEG400=1:[…]), itraconazole ([…] Co. Ltd. prepared in DMSO/PEG400 with a final concentration of 1.5 mg/mL), nintedanib ([…] Co. […] The mice in the Control group was administered with vehicle (DMSO/PEG400) at a daily dose of 10 mL/kg. Mice body weights were measured and recorded on Day 1, 5, 12, 19 and 21.

[3] = test system: bleomycin-induced pulmonary fibrosis; test: Bleomycin mouse model of pulmonary fibrosis, Example 3 (itraconazole inhalation, oral nintedanib); format: in vivo, ICR mice; settings: oral 60 mg/kg
Description: Iodine was used to disinfect the neck hair and skin. Later, the neck skin was cut to expose the trachea. 50 μL of PBS or bleomycin hydrochloride (Hisun Pfizer pharmaceutical Co., LTD, 17001711) in 0.9% sodium chloride solution ([…], i.e., […]) was quickly sprayed as mist into the trachea of mice from the Control Group or the other group with a high pressure syringe connected to a spraying nozzle. At the end, the skin was sutured and disinfected, and the mice were returned to the cages for recovery. On Day 5, the mice treated with bleomycin were divided into six groups at random (referred to as Group 2-7). […] For itraconazole inhalation, each mouse was placed in a 16×13×9 (length×width×height in cm) cabinet. Itraconazole preparation of 5, 15 or 50 mg/mL was sprayed into the cabinet with a compressed nebulizer. [table] Twenty-four hours after the last drug administration, the mice were sacrificed by dislocation of cervical vertebra. The trachea was isolated and intubated. The upper lobe of the left lung was ligated. […] The total number of leukocytes in the BALF was counted. The BALF was centrifuged at 2000 rpm/min for 10 min at 4° C. The supernatant was collected and stored at -80° C. for cytokine measurement, and the deposit was smeared on glass slides. After air drying at room temperature, the slides were subjected to Wright's-Giemsa staining. The number of neutrophils, lymphocytes and macrophages were counted under a microscope from a total of 200 cells for each slide. The upper left lung tissues were used for measuring the level of hydroxyproline, and the lower part was fixed in formalin for H&E staining and Masson's staining. The level of hydroxyproline in the lung tissues was measured using a Hydroxyproline Assay kit (Nanjing JianCheng Bioengineering Institute). The level of TGF-β1 in 100 μL BALF was determined using a mouse TGF-β1 ELISA kit (Beijing 4A Biotech Co., LTD), and the level of type I collagen (Col I) in 100 μL BALF was determined using a mouse Collagen Type I ELISA kit (CUSABIO BIOTEH). […] Then, the lung tissues were sectioned into 4 μm-thick sections for H&E staining and Masson's staining. H&E staining was used to observe the alveolar hyperemia, the infiltration or aggregation of neutrophils in the alveolar space or the vascular wall, and the thickening of alveolar septum or the formation of hyaline membranes. The degree of fibrosis in the lesions with H&E staining was observed under microscope and scored using a semi-quantitative Ashcroft scoring criteria below. Grade 0: Normal tracheal bronchoalveolar structures; Grade 1: Minimal fibrous thickening of alveolar or bronchiolar walls; Grade 3: Moderate thickening of walls without obvious damage to lung architecture; Grade 5: Increased fibrosis with definite damage to lung structure and formation of fibrous bands or small fibrous masses; Grade 7: Severe distortion of structure and large fibrous areas, with honeycomb lung placed in this category; Grade 8: Total fibrous obliteration. The severity of fibrosis between two odd numbers was considered as the corresponding even number. On the other hand, IOD value of positive Masson's staining site was measured by Image pro software for analysis. The data were tested for the homogeneity of variance. If the variance was homogenous (p>0.05), a single factor variance analysis was performed. The Dunnet test was performed for the differences between each dose group and the control group. If the variance was heterogenous (p 0.05), a non-parametric test was conducted, followed by the […] test for examining the differences between each dose group and the control group. The difference was considered significant when p<0.05.

[4] = compared to model group, 15 mg/kg, 60 mg/kg, 15+60 mg/kg p.o. daily

- concentration at 2 h ([1]; oral, Day 21, itraconazole 15 mg/kg, nintedanib 60 mg/kg p.o. daily, read-out: two-hour post dosing plasma level, single agent): 310 ng/mL
- concentration at 2 h ([1]; po, Day 21, 15+60 mg/kg p.o. daily, read-out: two-hour post dosing plasma drug level, itraconazole and nintedanib combined in administration): 397 ng/mL
Compound: COC(=O)c1ccc2c(c1)NC(=O)/C2=C(\Nc1ccc(N(C)C(=O)CN2CCN(C)CC2)cc1)c1ccccc1 [nintedanib]
- BALF collagen level [2, 4]: reduced
- BALF neutrophil number [2, 4]: reduced
- lung inflammation area [2, 4]: significantly reduced
- modified Ashcroft score [2, 4]: significantly reduced
- α-SMA staining area [2, 4]: significantly reduced
- mice body weight ([2]; itraconazole 15 mg/kg, nintedanib 60 mg/kg, 15+60 mg/kg p.o. daily Day 5-21): inhibited bleomycin-induced body weight reduction to some extent
- level of Col I in the BALF [3]: did not reduce
- number of lymphocytes and macrophages in the BALF [3]: had no effects
- pathological changes of lung tissues (H&E staining) [3]: significantly reduced the infiltration of neutrophils and macrophages and the thickening of alveolar septum
- collagen deposition in the lung tissues (Masson's staining IOD) ([3]; p<0.001): significantly reduced the collagen deposition
- level of TGF-β1 in the BALF ([3]; p<0.001): significantly reduced
- level of hydroxyproline in the lung tissues ([3]; p<0.01): significantly reduced
- neutrophils in the BALF ([3]; p<0.01): significantly reduced
- semi-quantitative Ashcroft Score ([3]; p<0.01): significantly reduced the pulmonary fibrosis
- total number of leukocytes in the BALF ([3]; p<0.01): significantly reduced
